Legend:
[1] = test system: primary mouse colon fibroblasts; test: Inflammatory gene expression (RT-qPCR/RNAseq) in fibroblasts treated with APTKA conditioned medium; format: cell-based; conditions: APTKA conditioned medium, 24 h, RT-qPCR
Method: (A) Schematic illustration of APTKA or APTK organoids supernatant collection and treatment of primary mouse colon fibroblasts of unchallenged wildtype C57BL/6 mice. […] (F) Relative expression analysis by RT-qPCR of inflammatory genes in untreated wildtype and APTKA conditioned medium treated fibroblasts in the presence of IKKß inhibitor ML120B (30 μM) and p38 MAPK inhibitor SB203580 (10 μM) for 24 h (n=4 independent wells per group). Data are mean±SD. p<0.05 by one-way ANOVA followed by Tukey's multiple comparisons test. Representative results from one experiment which has been independently repeated 3 times. (G and H) RNA sequencing analysis of APTKA (n=3) and APTK (n=3) organoids: (G) heat map analysis; (H) differentially expressed cytokines in APTKA (Log 2 fold change≤−1) compared to APTK organoids (log 2 fold Change≥1). p-value<0.05. (I) RT-qPCR analysis of inflammatory genes in APTKA conditioned fibroblasts treated with control IgG, α-IL-1α, α-IL-33, α-TNF-α, α-BAFF or α-CXCL16 neutralizing antibodies (2 μg/mL each) for 24 h (n=4 independent wells per group). Data are mean±SD. **** p<0.0001 by one-way ANOVA followed by Tukey's multiple comparisons test. Experiment performed twice. (J) RNA expression profiles of inflammatory genes in APTKA conditioned fibroblasts stimulated for 24 h then subjected to anakinra (10 μg/mL), APTKA fresh or regular medium treatments for another 24 h (n=4 independent wells per condition). Data are mean±SD; p<0.05 by one-way ANOVA followed by Tukey's multiple comparisons test. Representative results from one experiment which has been independently repeated 2 times.
To examine whether APTK and APTKA tumour organoids differentially affect surrounding fibroblasts in tumours directly in a paracrine manner, supernatants were collected from both tumour organoid lines and treated primary intestinal fibroblasts of unchallenged wildtype mice for 24 hours with the two different tumour-conditioned media ex vivo (FIG. 3A). RNAseq analysis confirmed distinct gene expression patterns in fibroblasts exposed to the two organoid supernatants (FIG. 3B).
The inventors then aimed to identify the upstream factors secreted by APTKA organoids that were responsible for activating NF-κB and p38 in fibroblasts. To this end RNAseq analysis of APTK and APTKA tumour organoids were performed and identified several differentially expressed genes encoding cytokines (FIG. 3G, H). Using neutralizing antibodies, NF-κB and p38 inducing cytokines TNFα, IL-1α, IL-33, BAFF or CXCL16 were blocked in APTKA supernatants and expression of Cxcl1, Cxcl2, Cxcl5 and Ilia as inflammatory marker genes in fibroblasts was examined.
To do so, fibroblasts were stimulated for 24 hours with APTKA conditioned medium before adding anakinra, adding fresh APTKA medium or changing medium to regular medium.

[2] = test system: IL-1α stimulated human fibroblasts; test: p21, pH2AX and SA-βgal staining of IL-1α stimulated fibroblasts; format: cell-based; conditions: IL-1α 1 μg/mL stimulated, 5-FU treated vs untreated
Method: (§1) FIG. 7: (A) APTKA organoids orthotopic transplantation into C57BL/6 mice followed by 5-fluorouracil (5-FU) chemotherapy (20 mg/Kg/day every 4 days for 21 days—experiment end point). Tumour area (mm3), % invasive area and liver metastasis frequency in untreated and 5-FU treated APTKA tumours (n=2 mice per group). Significant p-value<0.05 by t-test. (B and C) p21, pH2Ax IF and SA-ß gal staining quantifications and representative SA-ß gal staining images among untreated and 5-FU treated IL-1α (1 μg/mL) stimulated human fibroblasts and APTKA conditioned medium treated mouse fibroblasts. Significant p-value<0.05. Results representative of 4 independent experiments. Scale bars=100 μm.
Moreover, the inventors investigated the influence of chemotherapy on the IL-1α mediated changes to the tumour microenvironment in human cancer patients. Using staining experiments, the upregulation of pH2AX, p21, and SA-βgal in untreated and 5-FU treated IL-1α (1 μg/mL) stimulated human fibroblasts was quantified. […] Thus, targeting IL-1 in combination with chemotherapy may provide a substantial benefit particularly in tumours that are known to contain inflammatory cancer-associated fibroblasts such as pancreatic cancer, breast cancer or head and neck cancers.

[3] = test system: APTKA medium conditioned mouse fibroblasts; test: p21, pH2AX and SA-βgal staining of APTKA medium conditioned fibroblasts; format: cell-based; conditions: 5-FU treated vs non-treated
Method: as §1
In staining experiments, the inventors quantified the presence of nuclear p21, nuclear phosphorylated H2AX (pH2AX) and SA-βgal in APTKA medium conditioned mouse fibroblasts that were either left untreated or treated with 5-FU. […] (FIG. 7B). Overall, these experiments confirmed a chemotherapy induced senescence of the fibroblasts, when exposed to 5-FU.

APTKA orthotopic tumours = test: Orthotopic APTKA organoid model with 5-FU chemotherapy, with or without radiotherapy; format: in vivo, C57BL/6 mice; conditions: 21 days
Method: as §1
The inventors further investigated, whether therapy resistance of tumours during treatment with cytotoxic chemotherapy is also connected to the senescence behavior of CAFs. For this, the orthotopic APTKA organoid C57BL/6 mice of the inventors' murine model were divided in three groups and subjected to different treatments. The groups consisted of a control group of untreated mice, a second group that was administered 20 mg/kg/day of the cytotoxic chemotherapeutic agent […] (5-FU) every 4 days and a third group that was treated with a therapy based on a concomitant administration of 5-FU and radiation therapy based on a fractionated irradiation schedule (5×2 Gy). After 21 days of treatment, parameters of tumour progression were determined. […] Overall, in vivo administration of the chemotherapy aggravated invasive growth and stimulated formation of liver metastases similarly to irradiation.

[4] = test system: APTKA conditioned fibroblasts; test: Senescence induction in fibroblasts treated with APTKA-conditioned medium; format: cell-based, mouse; conditions: APTKA-conditioned medium plus W1400
Method: (§2) (A) Schematic illustration of APTKA organoids supernatant collection and treatment of colon fibroblasts from unchallenged wildtype C57BL/6 mice for 12 h followed by 3×2 Gy irradiation. Microscopic, proteomic & transcriptomic analysis were performed 72 h post first irradiation. (B) Microscopic captures of non-irradiated wildtype (WT) and APTKA conditioned fibroblasts. Remaining captures belong to irradiated fibroblasts: WT, IL-1α (1 μg/mL) stimulated WT, and APTKA conditioned media minus or plus anakinra (20 μg/mL) treated fibroblasts. Scale bars=200 μm. (C) Mass spectrometric analysis of matrisome profiles of 3×2 Gy irradiated (n=8) and non-irradiated (n=8) APTKA conditioned fibroblasts. […] (G) Immunoblot analysis of untreated and irradiated APTKA conditioned fibroblasts. Representative results from one experiment which has been independently repeated 2 times. (H) SA-ß gal staining of untreated and irradiated APTKA fibroblasts. Scale bars=100 μm. (I and J) p21 and pH2AX immunofluorescent staining of untreated and irradiated APTKA fibroblasts. Scale bars=[…]. Data are mean±SD. ** […] and *** p<0.001 by t-test. (K) Nitrite concentration determined by Griess assay in conditioned media from WT, APTK media, APTKA media, IL-1α (1 μg/mL) stimulated and APTKA plus anakinra (20 μg/mL) treated fibroblasts for 72 h (n=10 independent wells per group). […]

colon fibroblasts [5] = test: Oxidative DNA damage by 8-OHdG immunofluorescence in fibroblasts; format: cell-based, mouse; conditions: APTKA-conditioned medium plus W1400 1 mM, 72 h
Method: as §2

colon fibroblasts [6] = test: Nitrite concentration by Griess assay in fibroblast supernatants; format: cell-based, mouse; conditions: APTKA-conditioned medium plus W1400 1 mM
Method: as §2

[7] = 5-FU only, 20 mg/kg/day every 4 days, vs untreated control
[8] = concomitant 5-FU and radiotherapy (5×2 Gy), vs untreated control

COc1c(Cl)cc2c([nH]c3cnccc32)c1NC(=O)c1cccnc1C [ML120B]
induction of pro-inflammatory genes (Cxcl1, Cxcl2, Cxcl5, Mmp9, Mmp13, Il1a, 116, Tnfa, Nos2) ([1]; ML120B 30 μM): significantly inhibited the induction of pro-inflammatory genes

C[S+]([O-])c1ccc(-c2nc(-c3ccncc3)c(-c3ccc(F)cc3)[nH]2)cc1 (centres unmarked) [SB203580]
induction of pro-inflammatory genes (Cxcl1, Cxcl2, Cxcl5, Mmp9, Mmp13, Il1a, 116, Tnfa, Nos2) ([1]; SB203580 10 μM): significantly inhibited the induction of pro-inflammatory genes

O=c1[nH]cc(F)c(=O)[nH]1 [5-FU, 5-fluorouracil]
SA-βgal [2]: significant increase of all three biomarkers | p21 [2]: significant increase of all three biomarkers | pH2AX [2]: significant increase of all three biomarkers | SA-βgal staining [3]: significant upregulation of SA-βgal | nuclear p21 [3]: significant upregulation of SA-βgal and nuclear p21 | nuclear phosphorylated H2AX (pH2AX) [3]: significant increase of pH2AX | liver metastases (APTKA orthotopic tumours; [7]): have developed liver metastases | tumour area (APTKA orthotopic tumours; [7]): significant increase in tumour area | tumour invasiveness (% invasive area) (APTKA orthotopic tumours; [7]): significant increase in tumour area and tumour invasiveness | liver metastases (APTKA orthotopic tumours; concomitant 5-FU and radiotherapy (5×2 Gy)): every mouse of this group suffered from liver metastases | invasive area (APTKA orthotopic tumours; [8]): significant increase in tumour area and invasive area | tumour area (APTKA orthotopic tumours; [8]): significant increase in tumour area

CC(=N)NCc1cccc(CN)c1 [W1400]
senescence induction [4]: prevented oxidative DNA damage as well as senescence induction | oxidative DNA damage (8-OHdG immunofluorescence) (colon fibroblasts [5]): prevented oxidative DNA damage | nitrite production (colon fibroblasts [6]): blocked nitrite production
